This passage reports solubility and IC50 results from patent US20140005163A1 (NOVARTIS AG, priority 2010, published 2014).

Values after ≈ are worked out from the molar mass of the structure shown.

Data set [1] can be described thus: Solubility at pH 6.8. The following applies: pH 6.8, aqueous buffer, thermodynamic from solid; read-out: solubility. It counts as physicochemical. The gist of the method:
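Following the procedure of Zhou et al. (2007), compound solubility was determined at pH 6.8.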

The target in data set [2] is T1, PI3K beta (Homo sapiens, UniProt P42338).
T1 construct: for the full-length p110-b subunit are generated and fused by overlapping PCR; p85(iSH2) fusion partner (see partner chain) (N); His tag (C); made in house; host or cells: baculovirus; Tn5 (Trichoplusia ni) or TiniPro insect cells
As to the kind of experiment: PI3K beta kinase assay (Kinase-Glo luminescence). In kind it is biochemical. Put shortly:
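Kinase-Glo luminescence after a 60 min room-temperature reaction gives remaining ATP. The reaction holds 25 nM p85(iSH2)-p110β full-length His-tagged construct, 1 μM ATP, 10 μg/mL PI, and eight compound concentrations at 0.45% DMSO final. IC50 values come from a four-parameter logistic fit.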
On the technique in general: Kinase-Glo reads ATP consumption through a luciferase reaction.

In data set [3] the target is T2, mTOR (Homo sapiens, UniProt P42345).
T2 construct: purchased Invitrogen Corporation (Carlsbad/CA, USA) PV4753
As to the kind of experiment: Biochemical assay for m-TOR by TR-FRET. The following applies: 8 μM ATP, 400 nM GFP-4EBP1, 0.5 nM mTOR. The gist of the method: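 TR-FRET read-out: Tb-labelled anti-p4EBP1 pThr46 antibody (0.5 nM), added in EDTA to stop the reaction, detects phosphorylated GFP-4EBP1 after 15 min. Kinase step used 0.5 nM mTOR, 400 nM substrate, 8 μM ATP, MnCl2-containing HEPES buffer pH 7.5, room temperature.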

For data set [4], the target named is T3, PI3K delta (Homo sapiens, UniProt O00329).
T3 construct: for the full-length p110-d subunit are generated and fused by overlapping PCR; p85(iSH2) fusion partner (see partner chain) (N); His tag (C); made in house; host or cells: baculovirus; Tn5 (Trichoplusia ni) or TiniPro insect cells
As to the kind of experiment: PI3K delta kinase assay (Kinase-Glo luminescence). In kind it is biochemical. The gist of the method:
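ATP 1 μM, PI 10 μg/mL, PI3Kδ construct BV1060 10 nM (final); 10 mM Tris pH 7.5, 3 mM MgCl2, 50 mM NaCl, 0.05% CHAPS, 1 mM DTT; 60 min RT; Kinase-Glo stop, luminescence.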

T3 sequence (O00329 with tags, fused parts or gaps limits assumed): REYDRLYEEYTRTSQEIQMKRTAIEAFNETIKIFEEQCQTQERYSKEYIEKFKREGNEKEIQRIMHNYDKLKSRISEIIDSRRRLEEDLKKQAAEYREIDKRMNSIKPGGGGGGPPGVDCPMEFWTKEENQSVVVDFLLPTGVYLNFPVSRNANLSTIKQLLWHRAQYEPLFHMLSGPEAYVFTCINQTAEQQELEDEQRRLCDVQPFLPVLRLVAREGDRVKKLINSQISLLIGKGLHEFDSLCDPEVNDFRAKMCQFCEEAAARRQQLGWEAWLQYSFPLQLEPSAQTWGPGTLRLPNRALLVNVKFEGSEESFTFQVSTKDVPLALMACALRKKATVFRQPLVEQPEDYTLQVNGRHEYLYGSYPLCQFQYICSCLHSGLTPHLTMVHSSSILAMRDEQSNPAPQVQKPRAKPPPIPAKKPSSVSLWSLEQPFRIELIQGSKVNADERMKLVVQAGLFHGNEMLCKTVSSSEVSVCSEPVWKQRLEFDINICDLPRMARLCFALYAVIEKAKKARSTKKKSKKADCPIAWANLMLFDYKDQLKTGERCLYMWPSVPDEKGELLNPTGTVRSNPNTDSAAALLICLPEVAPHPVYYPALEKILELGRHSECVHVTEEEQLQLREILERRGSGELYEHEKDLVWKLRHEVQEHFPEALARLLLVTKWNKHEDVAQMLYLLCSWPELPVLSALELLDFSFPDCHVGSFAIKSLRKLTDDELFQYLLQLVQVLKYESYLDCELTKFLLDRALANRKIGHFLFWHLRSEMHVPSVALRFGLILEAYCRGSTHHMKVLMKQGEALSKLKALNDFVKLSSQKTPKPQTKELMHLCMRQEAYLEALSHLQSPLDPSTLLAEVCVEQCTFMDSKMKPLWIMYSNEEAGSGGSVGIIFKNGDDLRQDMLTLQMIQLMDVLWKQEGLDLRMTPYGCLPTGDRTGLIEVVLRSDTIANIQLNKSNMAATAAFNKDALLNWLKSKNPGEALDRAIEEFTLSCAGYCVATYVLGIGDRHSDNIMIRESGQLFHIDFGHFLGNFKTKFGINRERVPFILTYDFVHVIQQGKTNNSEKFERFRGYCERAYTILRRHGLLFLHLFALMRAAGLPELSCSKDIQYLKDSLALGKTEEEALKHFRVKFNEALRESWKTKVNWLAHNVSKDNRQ
T1 sequence (P42338 with tags, fused parts or gaps limits assumed): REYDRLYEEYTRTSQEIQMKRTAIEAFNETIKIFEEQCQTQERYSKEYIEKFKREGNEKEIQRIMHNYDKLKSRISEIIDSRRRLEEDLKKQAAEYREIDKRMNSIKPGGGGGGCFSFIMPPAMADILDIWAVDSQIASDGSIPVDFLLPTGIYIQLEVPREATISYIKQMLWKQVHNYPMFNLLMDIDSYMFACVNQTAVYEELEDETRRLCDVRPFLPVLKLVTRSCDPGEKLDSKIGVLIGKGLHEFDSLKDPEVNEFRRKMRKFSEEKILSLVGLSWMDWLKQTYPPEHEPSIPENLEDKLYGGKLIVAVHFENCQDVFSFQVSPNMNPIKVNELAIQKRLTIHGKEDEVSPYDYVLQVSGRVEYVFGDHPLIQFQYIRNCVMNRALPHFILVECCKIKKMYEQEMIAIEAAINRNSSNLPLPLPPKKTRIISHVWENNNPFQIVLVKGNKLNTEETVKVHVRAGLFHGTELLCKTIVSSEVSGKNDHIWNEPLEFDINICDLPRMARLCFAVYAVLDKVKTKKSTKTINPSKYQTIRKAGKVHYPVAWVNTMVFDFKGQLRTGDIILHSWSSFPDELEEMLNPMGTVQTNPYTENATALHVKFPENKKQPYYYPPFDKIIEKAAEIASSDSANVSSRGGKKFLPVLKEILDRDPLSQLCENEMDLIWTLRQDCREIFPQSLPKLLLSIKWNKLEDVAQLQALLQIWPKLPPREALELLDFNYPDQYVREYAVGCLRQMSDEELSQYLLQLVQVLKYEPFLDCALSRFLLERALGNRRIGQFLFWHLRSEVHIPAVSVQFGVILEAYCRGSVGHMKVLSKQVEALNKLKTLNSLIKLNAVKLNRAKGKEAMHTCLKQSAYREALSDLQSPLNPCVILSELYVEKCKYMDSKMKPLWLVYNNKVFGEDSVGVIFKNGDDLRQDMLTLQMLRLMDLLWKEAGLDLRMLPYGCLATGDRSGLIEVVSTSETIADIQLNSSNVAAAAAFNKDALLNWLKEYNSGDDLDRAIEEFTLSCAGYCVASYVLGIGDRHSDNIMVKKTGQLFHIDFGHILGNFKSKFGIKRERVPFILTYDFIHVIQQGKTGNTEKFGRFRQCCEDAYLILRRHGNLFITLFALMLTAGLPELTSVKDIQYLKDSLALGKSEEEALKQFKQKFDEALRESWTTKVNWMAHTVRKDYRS
T2 sequence (P42345 1360-2549 limits assumed): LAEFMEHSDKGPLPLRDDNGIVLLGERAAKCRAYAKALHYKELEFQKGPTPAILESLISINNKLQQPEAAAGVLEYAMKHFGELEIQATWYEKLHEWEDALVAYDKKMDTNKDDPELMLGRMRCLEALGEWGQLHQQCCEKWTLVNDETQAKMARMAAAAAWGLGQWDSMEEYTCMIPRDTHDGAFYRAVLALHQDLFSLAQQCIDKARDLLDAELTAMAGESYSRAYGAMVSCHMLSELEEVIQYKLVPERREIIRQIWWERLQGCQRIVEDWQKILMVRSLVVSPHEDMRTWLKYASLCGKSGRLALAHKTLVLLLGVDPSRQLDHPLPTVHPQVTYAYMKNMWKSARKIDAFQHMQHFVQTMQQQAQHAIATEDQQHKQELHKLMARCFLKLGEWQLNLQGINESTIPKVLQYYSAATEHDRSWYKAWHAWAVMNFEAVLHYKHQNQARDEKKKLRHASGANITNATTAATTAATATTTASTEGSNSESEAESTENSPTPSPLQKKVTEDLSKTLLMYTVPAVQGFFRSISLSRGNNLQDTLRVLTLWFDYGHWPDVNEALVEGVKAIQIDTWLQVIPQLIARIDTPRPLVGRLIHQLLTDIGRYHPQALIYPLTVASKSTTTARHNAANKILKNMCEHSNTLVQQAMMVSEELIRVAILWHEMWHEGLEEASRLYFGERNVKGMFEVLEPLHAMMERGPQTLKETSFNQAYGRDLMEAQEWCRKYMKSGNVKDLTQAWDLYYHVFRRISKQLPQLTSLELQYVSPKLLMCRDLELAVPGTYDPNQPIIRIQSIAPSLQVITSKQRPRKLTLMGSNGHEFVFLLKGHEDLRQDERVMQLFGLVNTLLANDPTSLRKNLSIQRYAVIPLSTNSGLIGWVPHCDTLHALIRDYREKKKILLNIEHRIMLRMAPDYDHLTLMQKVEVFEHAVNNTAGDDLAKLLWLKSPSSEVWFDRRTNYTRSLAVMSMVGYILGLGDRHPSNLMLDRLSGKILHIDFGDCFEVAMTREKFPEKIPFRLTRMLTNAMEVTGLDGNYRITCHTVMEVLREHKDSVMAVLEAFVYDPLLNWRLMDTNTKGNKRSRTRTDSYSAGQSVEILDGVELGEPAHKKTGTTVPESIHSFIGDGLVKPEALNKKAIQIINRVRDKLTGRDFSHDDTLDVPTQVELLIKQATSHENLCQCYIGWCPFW

Take `CCN1C(=O)OCc2ncc(-c3ccc4ncc5c(c4c3)n(-c3cn(C)nc3C)c(=O)n5C)cc21` [Example 237, 1-(1,3-Dimethyl-1H-pyrazol-4-yl)-8-(1-ethyl-2-oxo-1,4-dihydro-2H-pyrido[3,2-d][1,3]oxazin-7-yl)-3-methyl-1,3-dihydro-imidazo[4,5-c]quinolin-2-one]: in data set [1], the solubility (commonly how much of the substance goes into solution per volume) came out at 14 µg/mL (≈ 29.8 µM). Besides, the IC50 (in general, the concentration that inhibits the measured activity by half) was 7 nM in data set [2], 70 nM in data set [3] and 9 nM in data set [4].

Regarding `Cc1nn(C)cc1-n1c(=O)n(C)c2cnc3ccc(-c4cncc(N(C)C)c4)cc3c21` [Example 178, 8-(5-Dimethylamino-pyridin-3-yl)-1-(1,3-dimethyl-1H-pyrazol-4-yl)-3-methyl-1,3-dihydro-imidazo[4,5-c]quinolin-2-one], the solubility in data set [1] stood at 25 µg/mL (≈ 60.5 µM). Moreover, the 50% inhibitory concentration (IC50) in data set [2] amounted to 274 nM; in data set [3], 15 nM; in data set [4] it was 85 nM.

Take `CNC(=O)c1ccc(-c2ccc3ncc4c(c3c2)n(-c2c(C)nn(C)c2C)c(=O)n4C)cn1` [Example 15.2, 5-[3-Methyl-2-oxo-1-(1,3,5-trimethyl-1H-pyrazo1-4-yl)-2,3-dihydro-1H-imidazo[4,5-c]quinolin-8-yl]-pyridine-2-carboxylic acid methylamide]: in data set [1], the solubility was 71 µg/mL (≈ 161 µM). The half-maximal inhibitory concentration (IC50) stood at 988 nM in data set [2], 335 nM in data set [3] and 821 nM in data set [4].

In the case of `CCn1c(=O)n(-c2cn(C)nc2C)c2c3cc(-c4cncc(N)c4)ccc3ncc21` [Example 245, 8-(5-Amino-pyridin-3-yl)-1-(1,3-dimethyl-1H-pyrazol-4-yl)-3-ethyl-1,3-dihydro-imidazo[4,5-c]quinolin-2-one], the solubility in data set [1] was 129 µg/mL (≈ 323 µM). Besides, the IC50 in data set [2] came out at 162 nM; in data set [3], 76 nM; in data set [4] it was 30 nM.

Consider `Cc1nn(C)c(C)c1-n1c(=O)n(C)c2cnc3ccc(-c4cnc(N)c(CO)c4)cc3c21` [Example 169.2, 8-(6-Amino-5-hydroxymethyl-pyridin-3-yl)-3-methyl-1-(1,3,5-trimethyl-1H-pyrazol-4-yl)-1,3-dihydro-imidazo[4,5-c]quinolin-2-one], for which the solubility in data set [1] is above 429 µg/mL. In addition, the values for the concentration for half-maximal inhibition (IC50) in data set [2], in data set [3] and in data set [4] were 165 nM, 149 nM and 27 nM, respectively.

On to `CCNc1cc(-c2ccc3ncc4c(c3c2)n(-c2cn(C)nc2Cl)c(=O)n4C)cnc1C` [Example 87.2, 1-(3-Chloro-1-methyl-1H-pyrazol-4-yl)-8-(5-ethylamino-6-methyl-pyridin-3-yl)-3-methyl-1,3-dihydro-imidazo[4,5-c]quinolin-2-one], for which, in data set [1], the solubility was found to be 222 µg/mL (≈ 496 µM). For the same compound, the results for the 50% inhibitory concentration (IC50) in data set [2], in data set [3] and in data set [4] were 22 nM, below 3 nM and 19 nM, respectively.

Turning to `Cn1cc(-n2c(=O)n(C)c3cnc4ccc(-c5ccc(CO)nc5)cc4c32)c(Cl)n1` [Example 16.5, 1-(3-chloro-1-methyl-1H-pyrazol-4-yl)-8-(6-hydroxymethyl-pyridin-3-yl)-3-methyl-1,3-dihydro-imidazo[4,5-c]quinolin-2-one], the solubility in data set [1] is 15 µg/mL (≈ 35.6 µM). Further, the IC50 in data set [2] is 28 nM; in data set [3], 6 nM; in data set [4], 3 nM.

On to `CNc1cc(-c2ccc3ncc4c(c3c2)n(-c2cn(C)nc2C)c(=O)n4C)cnc1C` [Example 163, 1-(1,3-Dimethyl-1H-pyrazol-4-yl)-3-methyl-8-(6-methyl-5-methylamino-pyridin-3-yl)-1,3-dihydro-imidazo[4,5-c]quinolin-2-one], for which the solubility in data set [1] was determined as 24 µg/mL (≈ 58 µM). In addition, the IC50 in data set [2] was 10 nM; in data set [3] it was below 3 nM; in data set [4], 5 nM.

Regarding `COCCOc1cncc(-c2ccc3ncc4c(c3c2)n(-c2cn(C)nc2Cl)c(=O)n4C)c1` [Example 59.2, 1-(3-Chloro-1-methyl-1H-pyrazol-4-yl)-8-[5-(2-methoxy-ethoxy)-pyridin-3-yl]-3-methyl-1,3-dihydro-imidazo[4,5-c]quinolin-2-one], the solubility in data set [1] was determined as 6 µg/mL (≈ 12.9 µM). For the same compound, the 50% inhibitory concentration (IC50) in data set [2] turned out to be 19 nM; in data set [3] it was 26 nM; in data set [4] it was 9 nM.

With `COc1ccc(-c2ccc3ncc4[nH]c(=O)n(-c5cn(C)nc5C)c4c3c2)cn1` [Example 109, 1-(1,3-Dimethyl-1H-pyrazol-4-yl)-8-(6-methoxy-pyridin-3-yl)-1,3-dihydro-imidazo[4,5-c]quinolin-2-one], the solubility in data set [1] came out at 3 µg/mL (≈ 7.76 µM). Besides, the IC50 in data set [2] amounted to 38 nM; in data set [3], 11 nM; in data set [4], 19 nM.

For `Cc1nn(C)cc1-n1c(=O)n(C)c2cnc3ccc(-c4ccc(N5CCC5)nc4)cc3c21` [Example 5.1, 8-(6-Azetidin-1-yl-pyridin-3-yl)-1-(1,3-dimethyl-1H-pyrazol-4-yl)-3-methyl-1,3-dihydro-imidazo[4,5-c]quinolin-2-one], the solubility in data set [1] is 3 µg/mL (≈ 7.05 µM). In addition, the figures for the IC50 in data set [2], in data set [3] and in data set [4] were 787 nM, 18 nM and 144 nM, respectively.

As to `CCNc1ncc(-c2ccc3ncc4c(c3c2)n(-c2cn(C)nc2C)c(=O)n4C)cc1COC` [Example 206.1, 1-(1,3-Dimethyl-1H-pyrazol-4-yl)-8-(6-ethylamino-5-methoxymethyl-pyridin-3-yl)-3-methyl-1,3-dihydro-imidazo[4,5-c]quinolin-2-one], in data set [1], the solubility worked out at 8 µg/mL (≈ 17.5 µM). Besides, the IC50 turned out to be 38 nM in data set [2], 34 nM in data set [3] and 7 nM in data set [4].

Take `CCNc1cc(-c2ccc3ncc4c(c3c2)n(-c2cn(C)nc2C)c(=O)n4C)cnc1CO` [Example 155.1, 1-(1,3-Dimethyl-1H-pyrazol-4-yl)-8-(5-ethylamino-6-hydroxymethyl-pyridin-3-yl)-3-methyl-1,3-dihydro-imidazo[4,5-c]quinolin-2-one]: the solubility in data set [1] was found to be 73 µg/mL (≈ 165 µM). Besides, the IC50 amounted to 19 nM in data set [2], 3 nM in data set [3] and 14 nM in data set [4].

For the compound `CCN(C)c1cc(-c2ccc3ncc4c(c3c2)n(-c2cn(C)nc2C)c(=O)n4C)cnc1C` [Example 165, 1-(1,3-Dimethyl-1H-pyrazol-4-yl)-8-[5-(ethyl-methyl-amino)-6-methyl-pyridin-3-yl]-3-methyl-1,3-dihydro-imidazo[4,5-c]quinolin-2-one], the solubility in data set [1] was above 442 µg/mL. In addition, the results for the concentration for half-maximal inhibition (IC50) in data set [2], in data set [3] and in data set [4] were 25 nM, below 3 nM and 4 nM, respectively.

On to `CCOc1cc(-c2ccc3ncc4c(c3c2)n(-c2c(C)nn(CC(=O)N(C)C)c2C)c(=O)n4C)cnc1C` [Example 85.3, 2-{4-[8-(5-Ethoxy-6-methyl-pyridin-3-yl)-3-methyl-2-oxo-2,3-dihydro-imidazo[4,5-c]quinolin-1-yl]-3,5-dimethyl-pyrazol-1-yl}-N,N-dimethyl-acetamide], for which the solubility in data set [1] came out at 76 µg/mL (≈ 148 µM). Moreover, the half-maximal inhibitory concentration (IC50) stood at 477 nM in data set [2], 329 nM in data set [3] and 46 nM in data set [4].

In the case of `CCNc1cc(-c2ccc3ncc4c(c3c2)n(-c2cn(CC)nc2C)c(=O)n4C)cnc1CO` [Example 155.2, 8-(5-Ethylamino-6-hydroxymethyl-pyridin-3-yl)-1-(1-ethyl-3-methyl-1H-pyrazol-4-yl)-3-methyl-1,3-dihydro-imidazo[4,5-c]quinolin-2-one], in data set [1], the solubility is above 458 µg/mL. Further, the results for the IC50 in data set [2], in data set [3] and in data set [4] were 17 nM, 12 nM and 22 nM, respectively.
